Assay results as given in US20240033244A1, “COMPOSITIONS AND METHODS FOR INHIBITING YTHDF1” (SHANGHAI INSTITUTE OF MATERIA MEDICA, CHINESE ACADEMY OF …, priority 2020, published 2024).

How the values were obtained:
[1] = tested on: draining lymph node T cells; test: Draining lymph node T cell IFN-γ after OT1 peptide stimulation; type: in vivo, mouse; details: 1 μg/mL OT1 peptide
Procedure: (§1) Tumor infiltrating leukocytes were resuspended by RPMI 1640 medium at 5×10^6 per mL in 96-well plates. Phorbol-12-myristate-13-acetate (PMA) (2.5 μg/mL) and ionomycin (0.5 μg/mL) were used to stimulate T cells together with brefeldin A were added to the culture medium for 2 hours at 37° C. Cell concentration of total lymphocytes from draining lymph node was adjusted to 5×10^6 per mL in 96-well plate. 1 μg/mL OT-1 (OVA 257-264) peptide was added to the wells and stimulated for 96 hours. Samples were stained with CD45 and CD8 on ice for 30 min. Intracellular staining was performed to quantify IFN-γ and granzyme B production.
Then, lymphocytes from draining lymph node were isolated and stimulated with 1 μg/mL OT1 peptide, and IFN-γ producing cell were analyzed by FACS.

[2] = tested on: B16-OVA melanoma; test: B16-OVA tumor growth in wild-type mice; type: in vivo, mouse
[3] = tested on: OT-I T cells; test: CFSE-labeled OT-I T cell proliferation in vitro; type: cell-based, mouse; details: 5×10^5 CFSE-labeled OT-I T cells, various doses, 1 μg/mL OT-I peptide 24 hours
Procedure: 1×10^7 lymphocytes form lymph nodes of naïve OT-I mice were washed with PBS twice, then resuspend in 1 mL PBS. 1 μL CFSE Tracker was added into suspension and incubated in 37° C. for 5 min. Then 5 mL RPMI-1640 medium with 10% FBS was added to stop CFSE labelling, incubated at room temperature for 5 min. After centrifugation, CFSE-labeled T cells were suspended with another 5 mL RPMI-1640 medium at least for 10 min in room temperature.
In a further experiment, 5×10^5 CFSE-labeled OT-I T cells were treated with SAA of various doses in 96-well plates, then the cells were stimulated with 1 μg/mL OT-I peptide for 24 hours. Divided T cells were analyzed by FACS.

[4] = target: T1, YTHDF1 (361-559) (Homo sapiens, UniProt Q9BYJ9); test: Fluorescence polarization (FP) assay, inhibition of m6A-containing mRNA binding to YTHDF1; details: read-out: IC50, inhibition of interaction between m6A-containing mRNA and YTHDF1
T1 construct: GST (N, cleaved yes); made in house; host or cells: E. coli BL21 (DE3)
T1 sequence (Q9BYJ9 with tags, fused parts or gaps): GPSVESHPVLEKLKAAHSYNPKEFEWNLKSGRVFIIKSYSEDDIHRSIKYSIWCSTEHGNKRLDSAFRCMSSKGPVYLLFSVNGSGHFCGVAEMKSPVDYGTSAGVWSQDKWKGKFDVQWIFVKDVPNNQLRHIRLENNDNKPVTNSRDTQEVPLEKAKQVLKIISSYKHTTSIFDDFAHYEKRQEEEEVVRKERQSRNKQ
Procedure: As for activity tests, 1.25 μM YTHDF1 (361-559) was incubated with candidate compounds diluted to concentrations as indicated for 30 minutes. The subsequent steps were similar to that of HTS. And an equal amount of DMSO was used as the negative control.

[5] = tested on: FLT3L-DCs; test: FLT3L-DC direct-priming of OT-I T cells in vitro with OT-I peptide; type: cell-based, mouse; details: 1 μg/mL OT-I peptide
Procedure: Then antigen-obtained DCs were purified and co-cultured with naïve T cells from OT-1 mice at a ratio of 1:10 for 96 h. The co-culture medium was 1640 RPMI contains 10% fetal bovine with or without 1 μg/mL OT-1 (OVA 257-264) peptide. For ex vivo DCs cross-presentation assay, four types of DCs (migration CD11b DC, migration CD103′ DC, resident CD11b DC and resident CD8^+ DC) were sorted in draining lymph node from SAA treated B16-OVA bearing mice at day 12. These DCs were co-cultured with OT-1 naïve T cells in the ratio of 1:10 for 96 hours with or without OT-1 peptide. Supernatant IFN-γ production was detected via CBA assay.
Dendritic cells can activate T cells through cross-priming and/or direct-priming. In direct-priming process, DCs could stimulate T cells via surface co-stimulatory molecules such as CD80/CD86 or cytokines related with T cell activation. To evaluate whether the direct priming function was also affected after SAA administration, bone marrow derived cells (wildtype or Ythdf1 gene deficient) were cultured with FLT3L for 9 days to get FLT3L-DC and these DCs were treated with 10 μM SAA for 12 hours, then, FLT3L-DCs were co-cultured with necrotic B16-OVA tumor cell for 6 hours. […] IFN-γ production was assessed by IFN-γ cytometric bead array. […] Then, IFN-γ production was assessed by IFN-γ cytometric bead array.

[6] = tested on: tumor infiltrating T cells; test: Tumor infiltrating T cell function (PMA/ionomycin, intracellular staining); type: in vivo, mouse; details: B16-OVA bearing mice, PMA and ionomycin stimulation
Procedure: as §1
To explore the effects of SAA treatment on T cell function, SAA treated B16-OVA bearing mice were sacrificed to investigate tumor infiltrating T cell (TILs) function. Firstly, Phorbol-12-myristate-13-acetate (PMA) and ionomycin were used to nonspecifically stimulate tumor infiltrating T cell, then intracellular staining was performed to quantify cytokine (e.g., IFN-γ, granzyme B) production by FACS.

[7] = target: T1, YTHDF1 (361-559); test: NMR CPMG binding experiment; details: 200 μM SAA; 5 μM, 10 μM and 20 μM YTHDF1
Procedure: NMR CPMG experiment was performed at 25° C. using Bruker Avance III spectrometer (600 MHz proton frequency) with a cryogenically cooled probe (Bruker biospin, Germany). YTHDF1 (361-559) was diluted to 20 μM, 10 μM and 5 μM in phosphate buffer (20 mM NaH2PO4, 20 mM Na2HPO4, 150 mM NaCl, pH 7.4, D2O). […] The solvent-suppressed 1D ^1H CPMG was obtained via the pulse sequence (RD-90°-(τ-180°-τ) n-ACQ). In the pre-saturation procedure, a 54.78 dB pulse in 4 s duration of the recycle delay (RD) was applied to eliminate water resonance. Then, the 900 pulse length was modulated to 11.82 μs approximately. And at last, a total of 4 dummy scans and 64 free induction decays (FIDs) were collected into […] acquisition points, covering a spectral width of 12 kHz (20 ppm) with the acquisition time (ACQ) of 2.73 s.
Then, qualitative and quantitative experiments were performed to explore the binding between SAA and YTHDF1. Firstly, nuclear magnetic resonance (NMR) Carr-Purcell-Meiboom-Gill (CPMG) experiments were conducted.

IC50 [4]: 2.3 ± 0.11 µM
CPMG signal of the compound on addition of YTHDF1 [7]: signal decreased
Compound: O=C(/C=C/c1ccc(O)c(O)c1/C=C/c1ccc(O)c(O)c1)O[C@H](Cc1ccc(O)c(O)c1)C(=O)O [SAA, Salvianolic Acid A]
IFN-γ production by DLN T cells [1]: much more IFN-γ than DMSO group
tumor growth versus DMSO ([2]; 5×10^5 B16-OVA in C57BL/6 mice, 10 μM i.v. 9 days after implantation (FIG. 19)): tumor growth was much slower
tumor growth versus control ([2]; 5×10^5 B16-OVA s.c., 10 μM SAA on day 9 and 11): tumor growth was much slower
T cell proliferation [3]: could not influence T cell proliferation
FLT3L-DC direct-priming function (IFN-γ production) [5]: could not enhance
cytokine (IFN-γ, granzyme B) production by tumor infiltrating T cells [6]: higher level of cytokines than DMSO group
